System: Cisd2 promoter with firefly luciferase reporter
Assay: Cisd2-luciferase reporter assay in HEK293-CISD2 cells
Type: cell-based
Details: Homo sapiens, 24 hours incubation, luciferase luminescence
Method: A typical in vitro screening method includes the following steps: (i) obtaining an initial level of Cisd2 in a batch of human embryonic kidney cells 293 (HEK-293 cells) that express Cisd2, (ii) treating the batch of HEK-293 cells with a compound of this invention, and (iii) analyzing the level of Cisd2 after the treatment, thereby determining the potency of the compound as a Cisd2 activator.
Compounds 1-109 were tested for increasing the level of Cisd2 in human embryonic kidney cells 293 (HEK293), a transfected cell line expressing Cisd2, using the Cisd2-luciferase reporter assay as follows.
The transfected HEK293 cells stably expressed Cisd2 promoter with firefly luciferase reporter (HEK293-CISD2). They were kept in Dulbecco's modified Eagle's medium (DMEM) (Gibco, New York, NY, USA). Culture medium was supplemented with 10% heat-inactivated fetal bovine serum (FBS), 2 mM L-Glutamine, 1 mM sodium pyruvate, 0.1% MEM Non-Essential Amino Acids, 1 ug/ml puromycin and 1% penicillin/streptomycin (HyClone, Logan, UT, USA). The cells were maintained at 37° C. in an incubator (Thermo Fisher Scientific, New York, NY, USA) with an atmosphere of 5% CO2. The stably transfected cells were seeded in 384-well plates at a density of 3×10^3 cells/well. After incubation with tested compounds at 37° C. for 24 hours, ONE-Glo™ Luciferase Assay System (Promega, Madison, WI, USA) was added at room temperature for 5 minutes to detect any luciferase activity. Luminescence intensity was registered using plate reader Victor^2V (PerkinElmer, Boston, MA, USA).
EC50 values in this table are presented in three classes, i.e., A: <1 μM, B: 1 μM-5 μM, and C: 5 μM-10 μM.

Structure (SMILES): O=C(CS(=O)(=O)c1cccc(F)n1)N1Cc2ccccc2C1 [Compound 97, 1-(1,3-dihydro-2H-isoindol-2-yl)-2-[(6-fluoropyridin-2-yl)sulfonyl]ethanone]
- EC50: < 1000 nM

Structure (SMILES): Cc1ccc(SCC(=O)N2Cc3ccccc3C2)cc1 [Compound 62, 1-(1,3-dihydro-2H-isoindol-2-yl)-2-[(4-methylphenyl)sulfanyl]ethanone]
- EC50: 5000 to 10000 nM

Structure (SMILES): O=C(CS(=O)(=O)c1ccccn1)N1Cc2ccc(F)cc2C1 [Compound 40, 1-(5-fluoro-1,3-dihydro-2H-isoindol-2-yl)-2-(pyridin-2-ylsulfonyl)ethanone]
- EC50: < 1000 nM

Structure (SMILES): O=C(CSc1ccccc1F)N1Cc2cc(F)c(F)cc2C1 [Compound 65, 1-(5,6-difluoro-1,3-dihydro-2H-isoindol-2-yl)-2-[(2-fluorophenyl)sulfanyl]ethanone]
- EC50: < 1000 nM

Structure (SMILES): COc1ccc2c(c1)CN(C(=O)CS(=O)(=O)c1nccs1)C2 [Compound 29, 1-(5-methoxy-1,3-dihydro-2H-isoindol-2-yl)-2-(1,3-thiazol-2-ylsulfonyl)ethanone]
- EC50: < 1000 nM

Structure (SMILES): O=C(CCS(=O)(=O)c1ccccc1Cl)N1Cc2ccccc2C1 [Compound 106, 3-[(2-chlorophenyl)sulfonyl]-1-(1,3-dihydro-2H-isoindol-2-yl)propan-1-one]
- EC50: < 1000 nM

Structure (SMILES): O=C(CSc1ccccc1F)N1Cc2ccccc2C1 [Compound 59, 1-(1,3-dihydro-2H-isoindol-2-yl)-2-[(2-fluorophenyl)sulfanyl]ethanone]
- EC50: < 1000 nM

Structure (SMILES): O=C(C[S+]([O-])c1ccc(Cl)s1)N1Cc2ccccc2C1 (centres unmarked) [Compound 80, 2-[(5-chlorothiophen-2-yl)sulfinyl]-1-(1,3-dihydro-2H-isoindol-2-yl)ethanone]
- EC50: 1000 to 5000 nM

Structure (SMILES): O=C(CSc1nccs1)N1Cc2ccc(F)cc2C1 [Compound 5, 1-(5-fluoro-1,3-dihydro-2H-isoindol-2-yl)-2-(1,3-thiazol-2-ylsulfanyl)ethanone]
- EC50: < 1000 nM

Structure (SMILES): O=C(CS(=O)(=O)c1ccccn1)N1Cc2ccc(O)cc2C1 [Compound 85, 1-(5-hydroxy-1,3-dihydro-2H-isoindol-2-yl)-2-(pyridin-2-ylsulfonyl)ethanone]
- EC50: < 1000 nM

Structure (SMILES): O=C(CCSc1nccs1)N1Cc2ccccc2C1 [Compound 23, 1-(1,3-dihydro-2H-isoindol-2-yl)-3-(1,3-thiazol-2-ylsulfanyl)propan-1-one]
- EC50: < 1000 nM

Structure (SMILES): O=C(CS(=O)(=O)c1ccc(F)cn1)N1Cc2ccccc2C1 [Compound 101, 1-(1,3-dihydro-2H-isoindol-2-yl)-2-[(5-fluoropyridin-2-yl)sulfonyl]ethanone]
- EC50: < 1000 nM

Structure (SMILES): O=C(CCS(=O)(=O)c1nccs1)N1Cc2ccccc2C1 [Compound 48, 1-(1,3-dihydro-2H-isoindol-2-yl)-3-(1,3-thiazol-2-ylsulfonyl)propan-1-one]
- EC50: < 1000 nM

Structure (SMILES): O=C(CS(=O)(=O)c1nccs1)N1Cc2ccc(F)cc2C1 [Compound 31, 1-(5-fluoro-1,3-dihydro-2H-isoindol-2-yl)-2-(1,3-thiazol-2-ylsulfonyl)ethanone]
- EC50: < 1000 nM

Structure (SMILES): O=C(CCSc1ccccn1)N1Cc2ccc(F)cc2C1 [Compound 24, 1-(5-fluoro-1,3-dihydro-2H-isoindol-2-yl)-3-(pyridin-2-ylsulfanyl)propan-1-one]
- EC50: < 1000 nM

Structure (SMILES): O=C(CSc1nccs1)N1Cc2ccccc2C1 [Compound 1, 1-(1,3-dihydro-2H-isoindol-2-yl)-2-(1,3-thiazol-2-ylsulfanyl)ethanone]
- EC50: < 1000 nM

Structure (SMILES): O=C(N1Cc2ccc(F)cc2C1)C(F)(F)Sc1ccccn1 [Compound 26, 2,2-difluoro-1-(5-fluoro-1,3-dihydro-2H-isoindol-2-yl)-2-(pyridin-2-ylsulfanyl)ethanone]
- EC50: < 1000 nM

Structure (SMILES): O=C(CSc1nccs1)N1Cc2ccc(Cl)cc2C1 [Compound 7, 1-(5-chloro-1,3-dihydro-2H-isoindol-2-yl)-2-(1,3-thiazol-2-ylsulfanyl)ethanone]
- EC50: < 1000 nM

Structure (SMILES): O=C(CCSc1ccccc1)N1Cc2ccccc2C1 [Compound 79, 1-(1,3-dihydro-2H-isoindol-2-yl)-3-(phenylsulfanyl)propan-1-one]
- EC50: < 1000 nM

Structure (SMILES): O=C(CS(=O)(=O)c1ccc(F)cc1F)N1Cc2ccccc2C1 [Compound 91, 2-[(2,4-difluorophenyl)sulfonyl]-1-(1,3-dihydro-2H-isoindol-2-yl)ethanone]
- EC50: < 1000 nM

Structure (SMILES): O=C(CCSc1ccccc1Cl)N1Cc2ccccc2C1 [Compound 78, 3-[(2-chlorophenyl)sulfanyl]-1-(1,3-dihydro-2H-isoindol-2-yl)propan-1-one]
- EC50: < 1000 nM

Structure (SMILES): O=C(CSc1nccs1)N1Cc2cc(Cl)c(Cl)cc2C1 [Compound 8, 1-(5,6-dichloro-1,3-dihydro-2H-isoindol-2-yl)-2-(1,3-thiazol-2-ylsulfanyl)ethanone]
- EC50: 1000 to 5000 nM

Structure (SMILES): O=C(CSc1cccc(Cl)c1Cl)N1Cc2ccccc2C1 [Compound 68, 2-[(2,3-dichlorophenyl)sulfanyl]-1-(1,3-dihydro-2H-isoindol-2-yl)ethanone]
- EC50: 1000 to 5000 nM

Structure (SMILES): Cc1cccc(S(=O)(=O)CC(=O)N2Cc3ccccc3C2)n1 [Compound 41, 1-(1,3-dihydro-2H-isoindol-2-yl)-2-[(6-methylpyridin-2-yl)sulfonyl]ethanone]
- EC50: 1000 to 5000 nM

Structure (SMILES): O=C(CSc1nccs1)N1Cc2cccc(F)c2C1 [Compound 4, 1-(4-fluoro-1,3-dihydro-2H-isoindol-2-yl)-2-(1,3-thiazol-2-ylsulfanyl)ethanone]
- EC50: < 1000 nM

Structure (SMILES): O=C(CS(=O)(=O)c1nccs1)N1Cc2ccc([N+](=O)[O-])cc2C1 [Compound 36, 1-(5-nitro-1,3-dihydro-2H-isoindol-2-yl)-2-(1,3-thiazol-2-ylsulfonyl)ethanone]
- EC50: 1000 to 5000 nM

Structure (SMILES): O=C(CS(=O)(=O)c1ccc(C(F)F)s1)N1Cc2ccccc2C1 [Compound 105, 2-{[5-(difluoromethyl)thiophen-2-yl]sulfonyl}-1-(1,3-dihydro-2H-isoindol-2-yl)ethanone]
- EC50: 5000 to 10000 nM

Structure (SMILES): O=C(CSc1ncco1)N1Cc2ccccc2C1 [Compound 72, 1-(1,3-dihydro-2H-isoindol-2-yl)-2-(1,3-oxazol-2-ylsulfanyl)ethanone]
- EC50: < 1000 nM

Structure (SMILES): O=C(CSc1cccc(F)n1)N1Cc2ccccc2C1 [Compound 73, 1-(1,3-dihydro-2H-isoindol-2-yl)-2-[(6-fluoropyridin-2-yl)sulfanyl]ethanone]
- EC50: 1000 to 5000 nM

Structure (SMILES): O=C(CSc1ccccc1Cl)N1Cc2ccccc2C1 [Compound 67, 2-[(2-chlorophenyl)sulfanyl]-1-(1,3-dihydro-2H-isoindol-2-yl)ethanone]
- EC50: < 1000 nM

Structure (SMILES): O=C1N[C@H]2[C@H](CS[C@H]2CCCCC(=O)Oc2ccc3c(c2)CN(C(=O)CS(=O)(=O)c2nccs2)C3)N1 [Compound 51, 2-[(1,3-thiazol-2-ylsulfonyl)acetyl]-2,3-dihydro-1H-isoindol-5-yl 5-[(3aS,4S,6aR)-2-oxohexahydro-1H-thieno[3,4-d]imidazol-4-yl]pentanoate]
- EC50: < 1000 nM

Structure (SMILES): O=C(C[S+]([O-])c1cccc(F)n1)N1Cc2ccccc2C1 (centres unmarked) [Compound 82, 1-(1,3-dihydro-2H-isoindol-2-yl)-2-[(6-fluoropyridin-2-yl)sulfinyl]ethanone]
- EC50: < 1000 nM

Structure (SMILES): O=C(CS(=O)(=O)c1ncco1)N1Cc2ccc(F)cc2C1 [Compound 109, 1-(5-fluoro-1,3-dihydro-2H-isoindol-2-yl)-2-(1,3-oxazol-2-ylsulfonyl)ethanone]
- EC50: < 1000 nM

Structure (SMILES): COc1ccc2c(c1)CN(C(=O)CS(=O)(=O)c1ccccn1)C2 [Compound 39, 1-(5-methoxy-1,3-dihydro-2H-isoindol-2-yl)-2-(pyridin-2-ylsulfonyl)ethanone]
- EC50: < 1000 nM

Structure (SMILES): O=C(CSc1nccs1)N1Cc2ccc([N+](=O)[O-])cc2C1 [Compound 10, 1-(5-nitro-1,3-dihydro-2H-isoindol-2-yl)-2-(1,3-thiazol-2-ylsulfanyl)ethanone]
- EC50: 1000 to 5000 nM

Structure (SMILES): O=C(CC[S+]([O-])c1ccccc1Cl)N1Cc2ccccc2C1 (centres unmarked) [Compound 83, 3-[(2-chlorophenyl)sulfinyl]-1-(1,3-dihydro-2H-isoindol-2-yl)propan-1-one]
- EC50: < 1000 nM

Structure (SMILES): O=C(NCCSc1ccccn1)N1Cc2ccccc2C1 [Compound 25, N-[2-(pyridin-2-ylsulfanyl)ethyl]-1,3-dihydro-2H-isoindole-2-carboxamide]
- EC50: 1000 to 5000 nM

Structure (SMILES): O=C(CS(=O)(=O)c1ccccn1)N1Cc2ccccc2C1 [Compound 38, 1-(1,3-dihydro-2H-isoindol-2-yl)-2-(pyridin-2-ylsulfonyl)ethanone]
- EC50: < 1000 nM

Structure (SMILES): O=C(CSc1nccs1)N1Cc2cc(F)c(F)cc2C1 [Compound 6, 1-(5,6-difluoro-1,3-dihydro-2H-isoindol-2-yl)-2-(1,3-thiazol-2-ylsulfanyl)ethanone]
- EC50: 1000 to 5000 nM

Structure (SMILES): COc1ccc2c(c1)CN(C(=O)CSc1nccs1)C2 [Compound 2, 1-(5-methoxy-1,3-dihydro-2H-isoindol-2-yl)-2-(1,3-thiazol-2-ylsulfanyl)ethanone]
- EC50: < 1000 nM

Structure (SMILES): O=C(CS(=O)(=O)c1ccccc1)N1Cc2ccc(F)cc2C1 [Compound 93, 1-(5-fluoro-1,3-dihydro-2H-isoindol-2-yl)-2-(phenylsulfonyl)ethanone]
- EC50: < 1000 nM
